Reference: PubChem BioAssay (NCI)
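In this assay, cells in 96-well plates receive the compound at five concentrations for 48 hours. Endpoints are linearly interpolated between the surrounding concentrations. The concentration for full growth arrest is given as TGI.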

Legend:
Assay in all cases: inhibition of tumour cell growth, NCI panel, 48 h
UACC-257 melanoma = test system: UACC-257 melanoma
DU-145 prostate = test system: DU-145 prostate
MDA-MB-435 = test system: MDA-MB-435
MALME-3M melanoma = test system: MALME-3M melanoma
A498 renal = test system: A498 renal
HCC-2998 colon = test system: HCC-2998 colon
SK-MEL-2 melanoma = test system: SK-MEL-2 melanoma
EKVX NSCLC = test system: EKVX NSCLC
BT-549 breast = test system: BT-549 breast
SF-268 CNS = test system: SF-268 CNS
HOP-92 NSCLC = test system: HOP-92 NSCLC

## Cc1ccc(-n2cnc(C(=N)C#N)c2N)cc1
UACC-257 melanoma
  TGI: > 100 µM
DU-145 prostate
  TGI: > 100 µM
MDA-MB-435
  TGI: > 100 µM
MALME-3M melanoma
  TGI: > 100 µM
A498 renal
  TGI: > 100 µM
HCC-2998 colon
  TGI: > 100 µM
SK-MEL-2 melanoma
  TGI: > 100 µM
EKVX NSCLC
  TGI: > 100 µM
BT-549 breast
  TGI: > 100 µM
SF-268 CNS
  TGI: > 100 µM

## CCOC(=O)Nc1[nH]cc(-c2ccccc2)c1C#N
DU-145 prostate
  TGI: > 100 µM
MDA-MB-435
  TGI: > 100 µM
MALME-3M melanoma
  TGI: > 100 µM
A498 renal
  TGI: > 100 µM
SK-MEL-2 melanoma
  TGI: > 100 µM
EKVX NSCLC
  TGI: > 100 µM
SF-268 CNS
  TGI: > 100 µM

## COc1cccc(C2c3cc4c(cc3OC(N3CCCCC3)C2C)OCO4)c1O (configuration not stated)
HOP-92 NSCLC
  TGI: 46.8 µM
UACC-257 melanoma
  TGI: > 56.6 µM
DU-145 prostate
  TGI: 96.9 µM
MDA-MB-435
  TGI: 6.82 µM
MALME-3M melanoma
  TGI: 36.1 µM
HCC-2998 colon
  TGI: 25.6 µM
SK-MEL-2 melanoma
  TGI: 42.5 µM
EKVX NSCLC
  TGI: 56.8 µM
BT-549 breast
  TGI: 54.9 µM
SF-268 CNS
  TGI: 99.8 µM

## Cc1ccc(C2SCC(=O)N2c2ccc(-n3c(-c4ccccc4)nc4ccccc4c3=O)cc2)cc1 (configuration not stated)
HOP-92 NSCLC
  TGI: 51.6 µM
UACC-257 melanoma
  TGI: 69.8 µM
DU-145 prostate
  TGI: > 100 µM
MDA-MB-435
  TGI: 65.3 µM
MALME-3M melanoma
  TGI: 73 µM
A498 renal
  TGI: 90.3 µM
HCC-2998 colon
  TGI: 63.1 µM
SK-MEL-2 melanoma
  TGI: 51.3 µM
BT-549 breast
  TGI: 54.7 µM
SF-268 CNS
  TGI: > 100 µM

## CO/N=C(\C(=O)OC(=NC1CCCCC1)NC1CCCCC1)c1csc(NC(c2ccccc2)(c2ccccc2)c2ccccc2)n1
HOP-92 NSCLC
  TGI: > 10 µM
UACC-257 melanoma
  TGI: > 10 µM
DU-145 prostate
  TGI: > 10 µM
MALME-3M melanoma
  TGI: > 10 µM
A498 renal
  TGI: > 10 µM
HCC-2998 colon
  TGI: > 10 µM
SK-MEL-2 melanoma
  TGI: > 10 µM
EKVX NSCLC
  TGI: > 10 µM
BT-549 breast
  TGI: > 10 µM
SF-268 CNS
  TGI: > 10 µM

## NC(N)=NS(=O)(=O)c1ccc(NNc2c3ccccc3nc3c(C(=O)Nc4ccc(S(=O)(=O)Nc5ncccn5)cc4)cccc23)cc1
HOP-92 NSCLC
  TGI: > 100 µM
UACC-257 melanoma
  TGI: > 100 µM
DU-145 prostate
  TGI: > 100 µM
MDA-MB-435
  TGI: > 100 µM
MALME-3M melanoma
  TGI: 67.8 µM
A498 renal
  TGI: > 100 µM
HCC-2998 colon
  TGI: > 100 µM
SK-MEL-2 melanoma
  TGI: > 100 µM
EKVX NSCLC
  TGI: 96.2 µM
SF-268 CNS
  TGI: > 100 µM

## CC(=O)c1ccccc1NP(=O)(c1ccccc1)c1ccccc1
UACC-257 melanoma
  TGI: > 100 µM
DU-145 prostate
  TGI: > 100 µM
MDA-MB-435
  TGI: > 100 µM
MALME-3M melanoma
  TGI: > 100 µM
A498 renal
  TGI: > 100 µM
HCC-2998 colon
  TGI: > 100 µM
SK-MEL-2 melanoma
  TGI: > 100 µM
EKVX NSCLC
  TGI: > 100 µM
BT-549 breast
  TGI: > 100 µM
SF-268 CNS
  TGI: > 100 µM

## COc1cc(C2C3C=CC=C4CC=CC(=C43)C3CCC(=O)N32)cc(OC)c1OC (configuration not stated)
HOP-92 NSCLC
  TGI: > 100 µM
UACC-257 melanoma
  TGI: > 100 µM
DU-145 prostate
  TGI: > 100 µM
MDA-MB-435
  TGI: > 100 µM
A498 renal
  TGI: > 100 µM
SK-MEL-2 melanoma
  TGI: > 100 µM
EKVX NSCLC
  TGI: > 100 µM
SF-268 CNS
  TGI: > 100 µM

## O=C(/C=C/c1ccccc1)Oc1cccc(O)c1
HOP-92 NSCLC
  TGI: > 100 µM
UACC-257 melanoma
  TGI: > 100 µM
DU-145 prostate
  TGI: > 100 µM
MDA-MB-435
  TGI: > 100 µM
MALME-3M melanoma
  TGI: > 100 µM
A498 renal
  TGI: > 100 µM
HCC-2998 colon
  TGI: > 100 µM
SK-MEL-2 melanoma
  TGI: > 100 µM
BT-549 breast
  TGI: > 100 µM
SF-268 CNS
  TGI: 62.6 µM

## CC(=O)Nc1ccc(N=Nc2c(O)c(S(=O)(=O)O)cc3cc(S(=O)(=O)O)ccc23)cc1
HOP-92 NSCLC
  TGI: > 100 µM
UACC-257 melanoma
  TGI: > 100 µM
DU-145 prostate
  TGI: > 100 µM
MDA-MB-435
  TGI: > 100 µM
MALME-3M melanoma
  TGI: > 100 µM
SK-MEL-2 melanoma
  TGI: > 100 µM
EKVX NSCLC
  TGI: > 100 µM
BT-549 breast
  TGI: > 100 µM
SF-268 CNS
  TGI: > 100 µM

## CC1CC(OP(=O)(OCc2ccccc2)OCc2ccccc2)[C@@H](OCc2ccccc2)C(OCc2ccccc2)C1OCc1ccccc1 (some centres not stated)
UACC-257 melanoma
  TGI: > 100 µM
DU-145 prostate
  TGI: > 100 µM
MALME-3M melanoma
  TGI: > 100 µM
HCC-2998 colon
  TGI: > 100 µM
SK-MEL-2 melanoma
  TGI: > 100 µM
EKVX NSCLC
  TGI: > 100 µM
BT-549 breast
  TGI: > 100 µM
SF-268 CNS
  TGI: > 100 µM

## CCCNC(=O)NNC(=O)c1c[nH]c2nc(C)ccc2c1=O
UACC-257 melanoma
  TGI: > 100 µM
DU-145 prostate
  TGI: > 100 µM
MDA-MB-435
  TGI: > 100 µM
MALME-3M melanoma
  TGI: > 100 µM
A498 renal
  TGI: > 100 µM
SK-MEL-2 melanoma
  TGI: > 100 µM
EKVX NSCLC
  TGI: > 100 µM
BT-549 breast
  TGI: > 100 µM
SF-268 CNS
  TGI: > 100 µM

## Cc1ccc(/C=N/Nc2cc(C)c3cccc(C)c3n2)s1
HOP-92 NSCLC
  TGI: 59.4 µM
UACC-257 melanoma
  TGI: 58.9 µM
DU-145 prostate
  TGI: > 100 µM
MDA-MB-435
  TGI: 37.2 µM
MALME-3M melanoma
  TGI: 33.1 µM
HCC-2998 colon
  TGI: 22.7 µM
SK-MEL-2 melanoma
  TGI: 33.2 µM
EKVX NSCLC
  TGI: 38.2 µM
BT-549 breast
  TGI: 20.8 µM
SF-268 CNS
  TGI: 64.2 µM

## Nc1c(C(=O)O)nnc2ccc(Cl)cc12
UACC-257 melanoma
  TGI: > 100 µM
DU-145 prostate
  TGI: > 100 µM
MDA-MB-435
  TGI: > 100 µM
MALME-3M melanoma
  TGI: > 100 µM
A498 renal
  TGI: > 100 µM
HCC-2998 colon
  TGI: > 100 µM
SK-MEL-2 melanoma
  TGI: > 100 µM
EKVX NSCLC
  TGI: > 100 µM
BT-549 breast
  TGI: > 100 µM
SF-268 CNS
  TGI: > 100 µM

## COc1cc2c(cc1OC)C(CC1=C(c3ccccc3)CN3CCc4cc(OC)c(OC)cc4C3C1)NCC2 (configuration not stated)
UACC-257 melanoma
  TGI: 34.3 µM
MALME-3M melanoma
  TGI: 35.1 µM
A498 renal
  TGI: 33.2 µM
HCC-2998 colon
  TGI: 22.7 µM
SK-MEL-2 melanoma
  TGI: 37.1 µM
EKVX NSCLC
  TGI: 38.8 µM
SF-268 CNS
  TGI: 37.5 µM

## N#Cc1n[nH]n(-c2ccc(Br)cc2)c1=O
UACC-257 melanoma
  TGI: > 100 µM
DU-145 prostate
  TGI: > 100 µM
MDA-MB-435
  TGI: > 100 µM
MALME-3M melanoma
  TGI: > 100 µM
A498 renal
  TGI: > 100 µM
HCC-2998 colon
  TGI: > 100 µM
SK-MEL-2 melanoma
  TGI: > 100 µM
EKVX NSCLC
  TGI: > 100 µM
BT-549 breast
  TGI: > 100 µM
SF-268 CNS
  TGI: > 100 µM

## N#C[C@H](c1ccccn1)c1nc2ccccc2nc1Cl
HOP-92 NSCLC
  TGI: > 100 µM
UACC-257 melanoma
  TGI: > 100 µM
MDA-MB-435
  TGI: > 100 µM
MALME-3M melanoma
  TGI: > 100 µM
A498 renal
  TGI: > 100 µM
HCC-2998 colon
  TGI: > 100 µM
SK-MEL-2 melanoma
  TGI: > 100 µM
EKVX NSCLC
  TGI: > 100 µM
BT-549 breast
  TGI: > 100 µM

## O=[N+]([O-])c1ccc(CN(CCCl)OCCCl)cc1
UACC-257 melanoma
  TGI: > 100 µM
DU-145 prostate
  TGI: > 100 µM
MDA-MB-435
  TGI: > 100 µM
MALME-3M melanoma
  TGI: > 100 µM
HCC-2998 colon
  TGI: > 100 µM
SK-MEL-2 melanoma
  TGI: > 100 µM
EKVX NSCLC
  TGI: > 100 µM
BT-549 breast
  TGI: > 100 µM
SF-268 CNS
  TGI: > 100 µM

## CC1=NN(c2nc(N)nc(/C(C#N)=C\c3ccc([N+](=O)[O-])s3)n2)C(C)(C)C1
UACC-257 melanoma
  TGI: 0.544 µM
DU-145 prostate
  TGI: 0.597 µM
MDA-MB-435
  TGI: 0.405 µM
MALME-3M melanoma
  TGI: 3.87 µM
A498 renal
  TGI: 26.8 µM
HCC-2998 colon
  TGI: 4.4 µM
SK-MEL-2 melanoma
  TGI: 1.66 µM
EKVX NSCLC
  TGI: 4.28 µM
BT-549 breast
  TGI: 2.44 µM
SF-268 CNS
  TGI: > 100 µM

## CCCC(=O)NC(NC1CCCCC1)(C(=O)OCC)C(F)(F)F (configuration not stated)
HOP-92 NSCLC
  TGI: > 100 µM
UACC-257 melanoma
  TGI: > 100 µM
DU-145 prostate
  TGI: > 100 µM
MDA-MB-435
  TGI: > 100 µM
MALME-3M melanoma
  TGI: > 100 µM
HCC-2998 colon
  TGI: > 100 µM
SK-MEL-2 melanoma
  TGI: > 100 µM
EKVX NSCLC
  TGI: > 100 µM
SF-268 CNS
  TGI: > 100 µM

## O=c1oc2ccccc2cc1-c1cc2ccccn2c1
HOP-92 NSCLC
  TGI: > 100 µM
UACC-257 melanoma
  TGI: > 100 µM
DU-145 prostate
  TGI: > 100 µM
MDA-MB-435
  TGI: > 100 µM
A498 renal
  TGI: > 100 µM
SK-MEL-2 melanoma
  TGI: > 100 µM
EKVX NSCLC
  TGI: > 100 µM
BT-549 breast
  TGI: > 100 µM
SF-268 CNS
  TGI: > 100 µM

## COC(=O)/C=C(\C(=O)OC)C1C(=O)Oc2c(C)c(=O)c3ccccc3n21 (configuration not stated)
UACC-257 melanoma
  TGI: > 100 µM
DU-145 prostate
  TGI: > 100 µM
MDA-MB-435
  TGI: > 100 µM
MALME-3M melanoma
  TGI: > 100 µM
SK-MEL-2 melanoma
  TGI: > 100 µM
EKVX NSCLC
  TGI: > 100 µM
BT-549 breast
  TGI: > 100 µM
SF-268 CNS
  TGI: > 100 µM
